Here are results for 25 molecules from patent US12479845B2, “Imidazopyridine derivative compounds and use of same” (HANMI PHARM. CO., LTD., priority 2019, dated 2025).

In one assay the test system is NCI-H1417 cells. The assay is described as follows: Cell growth suppression test (CellTiter-Glo Luminescent Cell Viability Assay, 10 days treatment). Format: cell-based. The note with it: treated for 10 days. On the procedure:
Cell growth suppression effects of the synthesized compounds on NCI-H1417 cells were identified. The cells were treated with the synthesized compounds for 10 days. Then, in order to test the cell growth suppression, CellTiter-Glo Luminescent Cell Viability Assay (available from Promega, USA) was used. This test is to measure emission signals proportional to the number of ATPs based on a fixed amount of ATPs, which represents the presence of metabolically active cells, thereby determining the number of viable cells. The results are expressed as a Gl50 value. As for a control, GSK2879552 (available from GlaxoSmithKline USA) was used.
On the technique in general: Cellular ATP, detected with luciferase, serves as a proxy for viable cell number.

The target in another assay is LSD1 (Homo sapiens (Human), UniProt O60341). The assay is described as follows: Biochemical analysis of LSD1 histone demethylase inhibition (BPS Bioscience LSD1 fluorescence analysis kit, HRP/Amplex Red). The note with it: demethylation of Lys4 of histone H3. As for the experimental part: The biochemical inhibition activity of the synthesized compounds on LSD1 was measured. The activity measurement was performed using LSD1 fluorescence analysis kit (available from BPS Bioscience Co., Ltd., Catalog No: 50106). This analysis kit is designed to measure activity of LSD1 enzyme. H2O2 generated upon demethylation of Lys4 moiety of histone H3 by LSD1 is reacted with HRP/Amplex Red reagent to form fluorescent Resorufin, which is measured by this kit, thereby confirming demethylation.
The results are expressed as an IC50 value. As for a control, GSK2879552 (available from GlaxoSmithKline USA) was used.

Take “4-(7-((R)-3-aminopiperidine-1-yl)-3-(2-fluoro-4-((S)-3-hydroxypyrrolidine-1-yl)phenyl)-3H-imidazo[4,5-b]pyridine-2-yl)-2-fluorobenzonitrile [Example 35]”: halving of growth with NCI-H1417 cells (GI50) required 17 nM. Further, the IC50 (as a rule, the midpoint of a concentration-inhibition curve) on LSD1 worked out at 45 nM.

As to `Cc1ccc(-n2c(-c3ccc(C#N)cc3)nc3c(N4CCC[C@@H](N)C4)ccnc32)cc1` [Example 1, (R)-4-(7-(3-aminopiperidine-1-yl)-3-(p-tolyl)-3H-imidazo[4,5-b]pyridine-2-yl)benzonitrile], the GI50 – broadly, the concentration giving 50% growth inhibition – with NCI-H1417 cells (Homo sapiens, 240 h) was found to be 90 nM. At LSD1, this molecule had an IC50 of 56 nM.

For the molecule `N#Cc1ccc(-c2nc3c(N4CC[C@@H](N)C4)ccnc3n2-c2ccc(C3CC3)cc2)cc1` [Example 2, (R)-4-(7-(3-aminopyrrolidine-1-yl)-3-(4-cyclopropylphenyl)-3H-imidazo[4,5-b]pyridine-2-yl)benzonitrile], it took 40 nM to inhibit growth in the assay with NCI-H1417 cells (Homo sapiens, 240 h) by half (GI50). Besides, the IC50 on LSD1 was determined as 162 nM. Take `N#Cc1ccc(-c2nc3c(N4CCC(N)CC4)ccnc3n2-c2ccc(C3CC3)cc2)cc1` [Example 3, 4-(7-(4-aminopiperidine-1-yl)-3-(4-cyclopropylphenyl)-3H-imidazo[4,5-b]pyridine-2-yl)benzonitrile]: in the assay with NCI-H1417 cells (Homo sapiens, 240 h), the GI50 turned out to be 230 nM. Further, at LSD1, the IC50 worked out at 53 nM. As to `CN[C@@H]1CCCN(c2ccnc3c2nc(-c2ccc(C#N)cc2)n3-c2ccc(C3CC3)cc2)C1` [Example 4, (R)-4-(3-(4-cyclopropylphenyl)-7-(3-(methylamino)piperidine-1-yl)-3H-imidazo[4,5-b]pyridine-2-yl)benzonitrile], the GI50 in the assay on NCI-H1417 cells (Homo sapiens, 240 h) came to 103 nM. Also, the concentration for half-maximal inhibition (IC50) against LSD1 was 44 nM. The matching figures for `N#Cc1ccc(-c2nc3c(N4CCC[C@@H](N)C4)ccnc3n2-c2ccc(C3CC3)cc2)cc1` [Example 5, (R)-4-(7-(3-aminopiperidine-1-yl)-3-(4-cyclopropylphenyl)-3H-imidazo[4,5-b]pyridine-2-yl)benzonitrile]: 159 nM and 101 nM. As for `Cc1ccc(-n2c(-c3ccc(C#N)c(F)c3)nc3c(N4CCC[C@@H](N)C4)ccnc32)c(F)c1` [Example 7, (R)-4-(7-(3-aminopiperidine-1-yl)-3-(2-fluoro-4-methylphenyl)-3H-imidazo[4,5-b]pyridine-2-yl)-2-fluorobenzonitrile], growth in the assay on NCI-H1417 cells (Homo sapiens, 240 h) was halved (GI50) at 99 nM. This molecule also registered an IC50 at LSD1 of 26 nM. Take `N#Cc1ccc(-c2nc3c(N4CCCC[C@@H](N)C4)ccnc3n2-c2ccc(C3CC3)cc2)cc1F` [Example 8, (R)-4-(7-(3-aminoazepane-1-yl)-3-(4-cyclopropylphenyl)-3H-imidazo[4,5-b]pyridine-2-yl)-2-fluorobenzonitrile]: the GI50 with NCI-H1417 cells (Homo sapiens, 240 h) was 56 nM. Moreover, the IC50 against LSD1 worked out at 23 nM. The matching figures for `N#Cc1ccc(-c2nc3c(N4CCC[C@@H](N)C4)ccnc3n2-c2ccc(N3CCCCC3)cc2)cc1F` [Example 9, (R)-4-(7-(3-aminopiperidine-1-yl)-3-(4-(piperidine-1-yl)phenyl)-3H-imidazo[4,5-b]pyridine-2-yl)-2-fluorobenzonitrile]: 100 nM and 38 nM. `N#Cc1ccc(-c2nc3c(N4CCC[C@@H](N)C4)ccnc3n2-c2ccc(N3CCCCC3)cc2F)cc1F` [Example 10, (R)-4-(7-(3-aminopiperidine-1-yl)-3-(2-fluoro-4-(piperidine-1-yl)phenyl)-3H-imidazo[4,5-b]pyridine-2-yl)-2-fluorobenzonitrile] had a GI50 in the assay with NCI-H1417 cells (Homo sapiens, 240 h) of 30 nM. 40 nM corresponded to half-maximal inhibition against LSD1 (IC50).

Take `N#Cc1ccc(-c2nc3c(N4CCC[C@@H](N)C4)ccnc3n2-c2ccc(C3CC3)cc2F)cc1F` [Example 11, (R)-4-(7-(3-aminopiperidine-1-yl)-3-(4-cyclopropyl-2-fluorophenyl)-3H-imidazo[4,5-b]pyridine-2-yl)-2-fluorobenzonitrile]: in the assay with NCI-H1417 cells (Homo sapiens, 240 h), it took 24 nM to inhibit growth by half (GI50). This molecule also gave an IC50 against LSD1 of 21 nM. As to `CN[C@@H]1CCCN(c2ccnc3c2nc(-c2ccc(C#N)c(F)c2)n3-c2ccc(N3CCCC3)cc2)C1` [Example 12, (R)-2-fluoro-4-(7-(3-(methylamino)piperidine-1-yl)-3-(4-(pyrrolidine-1-yl)phenyl)-3H-imidazo[4,5-b]pyridine-2-yl)benzonitrile], the IC50 against LSD1 amounted to 24 nM.

`N#Cc1ccc(-c2nc3c(N4CCC[C@@H](N)C4)ccnc3n2-c2ccc(N3CCCC3)cc2)cc1F` [Example 13, (R)-4-(7-(3-aminopiperidine-1-yl)-3-(4-(pyrrolidine-1-yl)phenyl)-3H-imidazo[4,5-b]pyridine-2-yl)-2-fluorobenzonitrile] gave a 50% growth inhibitory concentration (GI50) in the assay with NCI-H1417 cells (Homo sapiens, 240 h) of 62 nM. In addition, the IC50 against LSD1 is 23 nM. On to `CN(C)c1ccc(-n2c(-c3ccc(C#N)c(F)c3)nc3c(N4CCC[C@@H](N)C4)ccnc32)cc1` [Example 14, (R)-4-(7-(3-aminopiperidine-1-yl)-3-(4-(dimethylamino)phenyl)-3H-imidazo[4,5-b]pyridine-2-yl)-2-fluorobenzonitrile], for which the IC50 against LSD1 stood at 26 nM. Molecule `N#Cc1ccc(-c2nc3c(N4CCC[C@@H](N)C4)ccnc3n2-c2c(F)cc(C3CC3)cc2F)cc1F` [Example 18, (R)-4-(7-(3-aminopiperidine-1-yl)-3-(4-cyclopropyl-2,6-difluorophenyl)-3H-imidazo[4,5-b]pyridine-2-yl)-2-fluorobenzonitrile] came in with a GI50 in the assay with NCI-H1417 cells (Homo sapiens, 240 h) of 46 nM. Moreover, at LSD1, the IC50 came out at 38 nM. For `N#Cc1ccc(-c2nc3c(N4CCC[C@@H](N)C4)ccnc3n2-c2c(F)cc(N3CCCC3)cc2F)cc1F` [Example 19, (R)-4-(7-(3-aminopiperidine-1-yl)-3-(2,6-difluoro-4-(pyrrolidine-1-yl)phenyl)-3H-imidazo[4,5-b]pyridine-2-yl)-2-fluorobenzonitrile], in that order: 18 nM and 29 nM. For `COC1CCN(c2ccc(-n3c(-c4ccc(C#N)c(F)c4)nc4c(N5CCC[C@@H](N)C5)ccnc43)c(F)c2)C1` (stereo partly drawn) [Example 23, 4-(7-((R)-3-aminopiperidine-1-yl)-3-(2-fluoro-4-(3-methoxypyrrolidine-1-yl)phenyl)-3H-imidazo[4,5-b]pyridine-2-yl)-2-fluorobenzonitrile], in that order: 4.8 nM and 17 nM.

In the assay with NCI-H1417 cells (Homo sapiens, 240 h), `CO[C@@H]1CCN(c2ccc(-n3c(-c4ccc(C#N)c(F)c4)nc4c(N5CCC[C@@H](N)C5)ccnc43)c(F)c2)C1` [Example 24, 4-(7-((R)-3-aminopiperidine-1-yl)-3-(2-fluoro-4-((R)-3-methoxypyrrolidine-1-yl)phenyl)-3H-imidazo[4,5-b]pyridine-2-yl)-2-fluorobenzonitrile] showed a GI50 of 7.6 nM. On LSD1, this molecule returned an IC50 of 19 nM. For `CO[C@H]1CCN(c2ccc(-n3c(-c4ccc(C#N)c(F)c4)nc4c(N5CCC[C@@H](N)C5)ccnc43)c(F)c2)C1` [Example 25, 4-(7-((R)-3-aminopiperidine-1-yl)-3-(2-fluoro-4-((S)-3-methoxypyrrolidine-1-yl)phenyl)-3H-imidazo[4,5-b]pyridine-2-yl)-2-fluorobenzonitrile], in that order: 4.4 nM and 38 nM. For `N#Cc1ccc(-c2nc3c(N4CCC[C@@H](N)C4)ccnc3n2-c2ccc(N3CCC(F)(F)C3)cc2F)cc1F` [Example 26, (R)-4-(7-(3-aminopiperidine-1-yl)-3-(4-(3,3-difluoropyrrolidine-1-yl)-2-fluorophenyl)-3H-imidazo[4,5-b]pyridine-2-yl)-2-fluorobenzonitrile], in that order: 26 nM and 29 nM. The matching figures for `N#Cc1ccc(-c2nc3c(N4CCC[C@@H](N)C4)ccnc3n2-c2ccc(N3CCCC3)cc2F)cc1F` [Example 27, (R)-4-(7-(3-aminopiperidine-1-yl)-3-(2-fluoro-4-(pyrrolidine-1-yl)phenyl)-3H-imidazo[4,5-b]pyridine-2-yl)-2-fluorobenzonitrile]: 64 nM and 37 nM. `Cc1ccc(-n2c(-c3ccc(C#N)c(F)c3)nc3c(N4CCC[C@@H](N)C4)ccnc32)cc1` [Example 28, (R)-4-(7-(3-aminopiperidine-1-yl)-3-(p-tolyl)-3H-imidazo[4,5-b]pyridine-2-yl)-2-fluorobenzonitrile] returned a GI50 with NCI-H1417 cells (Homo sapiens, 240 h) of 37 nM. The molecule further showed an IC50 on LSD1 of 40 nM. The matching figures for `COC1CN(c2ccc(-n3c(-c4ccc(C#N)c(F)c4)nc4c(N5CCC[C@@H](N)C5)ccnc43)c(F)c2)C1` [Example 31, (R)-4-(7-(3-aminopiperidine-1-yl)-3-(2-fluoro-4-(3-methoxyazetidine-1-yl)phenyl)-3H-imidazo[4,5-b]pyridine-2-yl)-2-fluorobenzonitrile]: 32 nM and 30 nM. With `CO[C@H]1CCN(c2ccc(-n3c(-c4ccc(C#N)c(F)c4)nc4c(N5CC6CNCC(C6)C5)ccnc43)c(F)c2)C1` [Example 71, 4-(7-(3,7-diazabicyclo[3.3.1]nonane-3-yl)-3-(2-fluoro-4-((S)-3-methoxypyrrolidine-1-yl)phenyl)-3H-imidazo[4,5-b]pyridine-2-yl)-2-fluorobenzonitrile], the GI50 with NCI-H1417 cells (Homo sapiens, 240 h) came out at 44 nM.

In turn, `N#Cc1ccc(-c2nc3c(N4CCCC[C@@H](N)C4)ccnc3n2-c2ccc(N3CC4COCC4C3)cc2F)cc1F` (stereo partly drawn) [Example 73, 4-(7-((R)-3-aminoazepane-1-yl)-3-(2-fluoro-4-(tetrahydro-1H-furo[3,4-c]pyrrole-5(3H)-yl)phenyl)-3H-imidazo[4,5-b]pyridine-2-yl)-2-fluorobenzonitrile] returned an IC50 at LSD1 of 28 nM. That is a double-digit nanomolar value.
